Key:
p21 = assay: mRNA expression level of p21, a marker of senescent cells, in tissues of aged mice (real-time RT-PCR, GAPDH as internal standard); type: in vivo; details: aged male C57BL/6J mice (78 weeks old), test substance in drinking water ad libitum for one month, compared to aged mice having no additional administration
Method: (§1) As animals, experiments was performed using 7 young mice (male C57BL/6J mice, 7 weeks old) and 28 aged mice (male C57BL/6J-Aged mice, 78 weeks old).
(§2) Group 1 was constituted of young mice, and aged mice were divided into 4 groups each consisting of 7 mice (Groups 2 to 5) and the experimental conditions of individual groups are set as shown in the Table below.
(§3) As explained below, water comprising a test substance was given to the mice of Group 3 to Group 5.
The each types of drinking water which were prepared by adding a test substance as mentioned above was given to mice of each of the groups ad libitum, and the test substance was orally administered for one month. One month after the initiation of the experiment, all mice were sacrificed and dissected. […]
(§4) The RNA was purified with 75% ethanol, evaporated to dry under reduced pressure, and dissolved in 50 micro l of RNA-free water. Using NanoDrop ND-1000 (NanoDrop Technologies), absorbance was measured at 260 nm and 280 nm to determination of an absorbance ratio (A260/280 nm), RNA purity was confirmed by checking whether or not the absorbance ratio falls within the range of 1.9 to 2.1.
Quantitative real-time PCR was performed using total RNA extracted from the tissue for analysis of mRNA expressions of senescence markers p16 and p21 commonly known in the technical field. […]

p16 = assay: mRNA expression level of p16, a marker of senescent cells, in tissues of aged mice (real-time RT-PCR, GAPDH as internal standard); type: in vivo; details: aged male C57BL/6J mice (78 weeks old), test substance in drinking water ad libitum for one month, compared to aged mice having no additional administration; for mRNA expression level of marker p16 for senescent cells in the hippocampus: FIG. 3
Method: as §1, §2, §3
The each types of drinking water which were prepared by adding a test substance as mentioned above was given to mice of each of the groups ad libitum, and the test substance was orally administered for one month. One month after the initiation of the experiment, all mice were sacrificed and dissected. From each of the mice, the liver, kidney, hippocampus and skeletal muscle were collected for measurement markers for senescent cells.
The tissues were collected from mice at the time of dissection and soaked in RNAlater (Ambion) overnight and thereafter stored at −80° C. Total RNA was extracted from the liver tissue by the TRIzol-chroloform method.
The tissue extracted from RNAlater (50 to 100 mg) was put in 1 ml of TRIzol Reagent (Invitrogen Life Technologies), crushed. After standing still at room temperature for 5 minutes, 0.2 ml of chloroform was added and stirred. After standing still at room temperature for 2 to 3 minutes, the mixture was centrifuged at 4° C. and 12,000×g for 15 minutes. The upper layer (250 micro l) was recovered and 0.5 ml of isopropanol was added. […]
as §4
Quantitative real-time PCR was performed using total RNA extracted from the tissue for analysis of mRNA expressions of senescence markers p16 and p21 commonly known in the technical field.
From the total RNA, CDNA was synthesized using PrimeScript (Registered trademark) RT reagent Kit (Perfect Real Time) in accordance with the protocol of the manufacturer. Then, CDNA was amplified by Thermal Cycler Dice Real Time System TP800 (Takara Bio) and fluorescence was detected by SYBR (Registered trademark) Premix Ex Taq™ (Perfect Real Time) and real-time PCR detection system (Takara Bio). […]
Using the mRNA expression of glyceraldehyde-3-phosphate dehydrogenase (GAPDH) as an internal standard for correction, the relative values of mRNAs of interest were calculated. […]

Structure (SMILES) | mRNA expression level of marker p21 for senescent cells in the kidney (p21; kidney, FIG. 1) | mRNA expression level of marker p21 for senescent cells in the liver (p21; liver, FIG. 2, upper panel) | mRNA expression level of marker p16 for senescent cells in the hippocampus (p16) | mRNA expression level of marker p16 for senescent cells in the liver (p16; liver, FIG. 2, lower panel) | mRNA expression level of marker p16 for senescent cells in the skeletal muscle (p16; skeletal muscle, FIG. 4)
OC[C@H]1O[C@@H](O[C@@H]2[C@@H](CO)OC(O)(CO)[C@H]2O)[C@H](O)[C@@H](O)[C@H]1O (mixture of isomers) [lactulose] | significantly decreased | tended to decrease | decreased, although not significantly | significantly decreased | decreased, although not significantly
Cl.NCCC[C@H](N)C(=O)O [ornithine, L-ornithine hydrochloride] |  |  | decreased, although not significantly |  | 

— patent publication US20250281517A1, “SENOLYSIS BY AMMONIA-LOWERING COMPONENT” (TAZ Inc., priority 2022, published 2025)
